Read-outs that look alike come from different tables or passages of the source. Ends that are not written are not given here. Peptide text beside a SMILES is read from it. * marks the point of attachment. Biotin = O=C1N[C@H]2[C@H](CS[C@H]2CCCCC(=O)*)N1
Columns and labels:
PC3M cells = test: MTT assay, PC3M cells; assay type: cell-based; conditions: Homo sapiens, PC-3M, 48 h, 5000 cells per well, triplicate, 562 nm, P< 0.05 vs v6A3, read-out: DOX IC50 of PC3M
Method: To determine the dose response of drug-resistant PC3M1G4 cell lines, PC3M and v6A3 cells were seeded in triplicate in 96-well plates at 5000 cells per well and incubated for 24 h. A range of concentrations (1000, 100, 10, 1, 0.1, 0.01, 0.001, 0.0001 nM) of DOX in fresh medium were added to the cells. Control cells were treated with appropriate volumes of fresh medium. After 48 h, 20 μl of MTT (3-(4,5-dimethylthiazol-2-yl)-2,5-diphenyltetrazolium bromide) (5 mg/ ml) (Sigma-Aldrich, St. Louis, MO) was added to each well, followed by incubation at 37°C in 5% CO2 for 4 h. Subsequently, 100 μl of DMSO (Sigma-Aldrich, St. Louis, MO) was added and the plate was shaken for 20 min at RT to dissolve the formazan crystals. The optical density (absorbance units) was read at a wavelength of 562 nm on a μQuant Universal Microplate Spectrophotometer (Bio-Tek Instruments, Winooski, VT). The growth inhibition curve was generated using GraphPad Prism 6.0 software (GraphPad Software Inc., San Diego, CA). Absolute IC50 values were calculated using the log inhibitor vs. response curves for nonlinear regression.

SORE6-GFP^- cells = system: SORE6-GFP^- cells; set-up: method as in PMID 22439924; conditions: treatment with doxorubicin; proportion of SORE6-GFP^+ cells increased dramatically; ref [41]; cited from earlier work
recombinant CD44v6-Fc = target: T1, recombinant CD44v6-Fc (Homo sapiens, UniProt P16070, DEL223-384/DEL429-575); test: Peptide-Protein ELISA, recombinant CD44v6-Fc; assay type: binding; conditions: 2 h at RT, 490 nm; for binding to recombinant CD44v6-Fc (in words): biotinylated synthetic peptides, various concentrations, Figure 2C, 2D; for Kd: biotinylated peptide, CD44v6-Fc coated at 1 μg/ml, pH 9.6, 0.5% BSA in PBST, HRP-streptavidin, nonlinear regression, GraphPad Prism 6.0
T1 construct: the ECD of CD44 and CD44v6 protein were expressed as Fc-tagged proteins; made in house; host or cells: CHO-K1 cells, purified by protein A chromatography
T1 sequence (P16070 with tags, fused parts or gaps isoform P16070-7 DEL223-384/DEL429-575 limits assumed): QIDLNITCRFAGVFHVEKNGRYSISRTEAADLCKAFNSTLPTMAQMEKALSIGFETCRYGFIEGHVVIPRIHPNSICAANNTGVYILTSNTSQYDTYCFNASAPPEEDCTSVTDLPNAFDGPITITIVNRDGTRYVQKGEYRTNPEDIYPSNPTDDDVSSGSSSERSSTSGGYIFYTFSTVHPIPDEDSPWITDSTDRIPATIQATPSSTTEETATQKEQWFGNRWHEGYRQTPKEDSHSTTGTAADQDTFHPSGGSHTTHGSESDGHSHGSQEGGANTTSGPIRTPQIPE
Description: Figure 2 Characterization of peptide binding to recombinant CD44v6 (A) Schematic of recombinant CD44v6-Fc and CD44-Fc expression construct. The number of constant exons (1-5 and 15-17) are marked. (B) SDS-PAGE analysis and immunoblotting of purified CD44v6-Fc and CD44-Fc (M, BioRad precision plus all blue prestained protein standard; lane 1, CD44v6-Fc; lane 2, CD44-Fc). For SDS-PAGE analysis, the purified proteins were detected by coomassie blue staining. For immunoblotting, the mouse anti-human Fc Ab or mouse anti-human v6 region specific mAb VFF18 was used as the primary Ab and HRP conjugated goat anti-mouse Ab was used as the secondary Ab. (C) ELISA analysis of the dose dependent recombinant CD44v6-Fc binding ability of four biotinylated peptides. […] The maximal ELISA absorbance value of PFT binding to CD44v6-Fc was used to normalize the binding signal of individual peptides. The specific binding curve was generated using GraphPad Prism 6.0 software and absolute Kd values were calculated using nonlinear regression. (D) The specificity of PFT binding to recombinant CD44v6-Fc. Different concentrations of PFT and its two scrambled peptide versions were incubated with immobilized CD44v6-Fc or CD44-Fc, respectively for ELISA analyses. The maximal ELISA absorbance value of PFT binding to CD44v6-Fc was used to normalize the binding signal of individual peptides. The specific binding curve was generated using GraphPad Prism 6.0 software.
An ELISA was performed to analyze the binding of synthesized biotinylated peptides to recombinant CD44-Fc or CD44v6-Fc. Briefly, 100 μl of recombinant protein at 1 μg/ml in 0.05 M carbonate/bicarbonate coating buffer (pH 9.6) was added to each well of a 96-well microtiter plate and coated for 24 h at 4°C. The plates were blocked with 1% BSA in PBST buffer (0.05% Tween 20 in PBS) and then incubated with 100 μl of peptides or antibodies at various concentrations in 0.5% BSA in PBST for 2 h at RT. After washing extensively for five times with PBST buffer, the plates were incubated with 100 μl of HRP-conjugated streptavidin (1:2000 diluted with 0.5% BSA in PBST buffer) for 1 h at RT. After washing five times with PBST buffer, the Sigma fast O-phenylenediamine dihydrochloride tablets (Sigma-Aldrich, St. Louis, MO) were used as substrates and the absorbance was measured at 490 nm using an endpoint assay on a μQuant Universal Microplate Spectrophotometer (Bio-Tek Instruments, Winooski, VT).
For binding analysis, the ECD of CD44 and CD44v6 protein were expressed as Fc-tagged proteins (Figure 2A). Exon numbering was performed according to the study of Screaton et al. The ECD of CD44 was engineered as an N-terminal constant sequence (exons 1–5) followed by a nonvariable stretch at the C-terminus (exons 15–17) (Figure 2A). […]

[1] = system: v6 region peptide (KEQWFGNRWHEGYR) of CD44v6; test: Peptide-Peptide ELISA, v6 region peptide; assay type: binding, human; conditions: biotinylated peptides 10 μM, v6 and control peptides 2 μM on streptavidin plate; 25 mM Tris pH 7.2, 150 mM NaCl, 0.1% BSA, 0.05% Tween-20; 2 h at RT; 490 nm; Figure 1D
VFF18 = conditions: amino acids 19-29 of the v6 domain; ref [55]; cited from earlier work
Description: Affinity selection of phage displaying peptides typically involves passing the phage library over desired target molecules, such as protein biomarkers of cancer. In this study, we aimed to obtain peptides specific to the v6 region of human CD44v6, a putative aggressive cancer and/or CSC biomarker. However, the v6 region contains only 45 amino acids while the CD44v6-ECD consists of 290 amino acids. […] VFF18 is a murine mAb gene ...

Met signaling = conditions: v6 peptide derivative; ref [36]; cited from earlier work
CD44v6 = test: Immunohistofluorescence, human PCa tissue microarrays; conditions: T3N2M1 (grade III) TMA sample; 50 μM peptide; Figure 10C
[2] = target: CD44v6-Fc ECD (exons 1-5, v6 exon 10, exons 15-17) (Homo sapiens), P16070; test: ELISA; conditions: N-terminal biotin on peptide, Fc fusion of CD44v6
Chain of CD44v6-Fc ECD (exons 1-5, v6 exon 10, exons 15-17) (Homo sapiens), P16070 (P16070 whole entry, looked up, change not shown, the tested form may be a part): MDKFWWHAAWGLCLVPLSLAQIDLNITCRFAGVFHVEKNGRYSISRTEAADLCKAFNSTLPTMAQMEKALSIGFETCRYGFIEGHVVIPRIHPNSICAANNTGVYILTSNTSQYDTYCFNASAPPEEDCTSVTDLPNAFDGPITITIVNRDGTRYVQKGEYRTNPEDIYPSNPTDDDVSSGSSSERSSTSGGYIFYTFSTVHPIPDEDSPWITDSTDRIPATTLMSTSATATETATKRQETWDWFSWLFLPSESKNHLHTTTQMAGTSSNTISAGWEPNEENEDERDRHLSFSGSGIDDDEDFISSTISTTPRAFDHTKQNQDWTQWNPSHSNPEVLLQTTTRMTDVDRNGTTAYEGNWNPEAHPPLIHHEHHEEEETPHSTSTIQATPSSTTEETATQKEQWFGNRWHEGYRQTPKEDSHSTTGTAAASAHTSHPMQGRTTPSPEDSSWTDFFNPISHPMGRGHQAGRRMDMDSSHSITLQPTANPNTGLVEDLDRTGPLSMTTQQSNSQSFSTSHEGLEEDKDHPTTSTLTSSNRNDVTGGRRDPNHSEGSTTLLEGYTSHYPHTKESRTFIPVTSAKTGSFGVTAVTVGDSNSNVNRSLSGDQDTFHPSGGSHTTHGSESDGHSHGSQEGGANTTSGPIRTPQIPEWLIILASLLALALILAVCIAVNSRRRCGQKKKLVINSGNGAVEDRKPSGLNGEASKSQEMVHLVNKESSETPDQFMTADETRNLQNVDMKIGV

COc1cccc2c1C(=O)c1c(O)c3c(c(O)c1C2=O)C[C@@](O)(C(=O)CO)C[C@@H]3O[C@H]1C[C@H](N)[C@H](O)[C@H](C)O1 [DOX, doxorubicin]
IC50 (PC3M cells): 51.6 nM | cell death among SORE6-GFP^- cells on DOX treatment (in words) (SORE6-GFP^- cells): extensive cell death was observed among SORE6-GFP^- cells

VSVWFVTANFPPFTD [scr2]
binding to recombinant CD44v6-Fc (in words) (recombinant CD44v6-Fc): negligible binding to CD44v6-Fc

Biotin-GSG-SAYDRPL (Biotin-GSGSAYDRPL)
binding of synthetic peptides to v6 region peptide compared to control peptide (in words) [1]: increased binding to v6 region peptide compared to control peptide

WFGNRWHEGYR [peptide corresponding to amino acids 19-29 of the v6 domain]
epitope for VFF18 binding (in words) (VFF18): minimum sequence required for high-affinity binding of VFF18

KEQWFGNRWHEGYR [selection target]
inhibition of Met signaling (in words) (Met signaling): inhibited Met signaling

Biotin-GSG-WSNKGYD
binding of synthetic peptides to v6 region peptide compared to control peptide (in words) [1]: increased binding to v6 region peptide compared to control peptide

CC(C)[C@H](NC(=O)[C@H](Cc1ccccc1)NC(=O)[C@@H]1CCCN1C(=O)[C@@H](NC(=O)[C@H](CO)NC(=O)[C@@H](NC(=O)[C@@H](NC(=O)[C@H](Cc1ccccc1)NC(=O)[C@@H]1CCCN1C(=O)CNC(=O)[C@H](CO)NC(=O)CNC(=O)CCCC[C@@H]1SC[C@@H]2NC(=O)N[C@@H]21)[C@@H](C)O)C(C)C)C(C)C)C(=O)N[C@@H](Cc1c[nH]c2ccccc12)C(=O)N[C@@H](CC(N)=O)C(=O)N[C@@H](Cc1ccccc1)C(=O)N[C@H](C(=O)N[C@@H](C)C(=O)N[C@@H](CC(=O)O)C(=O)O)[C@@H](C)O [PFT] (Biotin-GSGPFTVSVPFVWNFTAD-OH)
Kd (recombinant CD44v6-Fc; read-out: apparent affinity (equilibrium dissociation constant, Kd) to recombinant CD44v6): 0.743 ± 0.153 µM

CC(C)[C@H](NC(=O)[C@H](CO)NC(=O)[C@H](CO)NC(=O)[C@@H](NC(=O)[C@H](CCCNC(=N)N)NC(=O)[C@@H]1CCCN1C(=O)CNC(=O)[C@H](C)NC(=O)[C@H](Cc1c[nH]c2ccccc12)NC(=O)CNC(=O)[C@H](CO)NC(=O)CNC(=O)CCCC[C@@H]1SC[C@@H]2NC(=O)N[C@@H]21)C(C)C)C(=O)N[C@@H](Cc1ccc(O)cc1)C(=O)N[C@@H](Cc1ccc(O)cc1)C(=O)N[C@@H](C)C(=O)NCC(=O)N[C@@H](C)C(=O)N[C@@H](CCCNC(=N)N)C(=O)O [WAG] (Biotin-GSGWAGPRVSSVYYAGAR-OH)
Kd (recombinant CD44v6-Fc; read-out: apparent affinity (Kd) to recombinant CD44v6): 8.67 ± 1.85 µM

VTPVFSFATPNFVDW [scr1]
binding to recombinant CD44v6-Fc (in words) (recombinant CD44v6-Fc): negligible binding to CD44v6-Fc | staining of PCa tissue by scrambled peptide (in words) (CD44v6): no staining

B1: WAG (peptide)
chain: Biotin-GSGWAGPRVSSVYYAGAR
Kd [2]: 8.67 µM

B2: PFT (peptide)
chain: Biotin-GSGPFTVSVPFVWNFTAD
Kd [2]: 0.743 µM

From publication PMC5689723, “Targeting aggressive prostate cancer-associated CD44v6 using phage display selected peptides” (Oncotarget, 2017)
